# System: hair follicle neogenesis
# Experiment: Patch assay, hair follicle neogenesis in vivo
# Parameters: species or system nu/nu mouse
# Settings: 100 μM peptide vs scrambled peptide, N=3 patches (FIG. 2)
# Description: Next, we used a patch assay to test is TSN peptides can induce hair follicle neogenesis in vivo. Epidermal aggregates were resuspended in DMEM/F12 at 750,000 aggregates/750 μL (1000 aggregates/μL) and spheroids were resuspended in DMEM/F12 at 1400 spheroids/140 μL (10 spheroids/μL). 10 million dermal cells were resuspended in 400 μL DMEM/F12 (25,000 cell/μL or 1.25E6 per 50 μL). […] Using a dissecting microscope the number of hair follicles were counted for each implantation from the mucosal side of the skin (FIG. 2).
# Preparation of spheroids: Dermal Papilla (DP) cells were trypsinized, neutralized and counted. […]
# Preparation of epidermal Cell aggregates: From 12 neonatal foreskins, the epidermis was separated from the dermis using dispase incubation overnight. […] The final pellet was resuspended in 6 mL DMEM/F12 (for 12 skins) and the aggregates were counted using hemocytometer. […]
sequence,measurement,value
"HSPDIQLQKGLTFEPIQIK [TSN6, 19 amino acid peptide derived from multimerin-1, Coiled coil domain]",number of hair follicles (hair follicle formation),two-fold increase

# From patent US20250276999A1, “PEPTIDES FOR PROMOTING HAIR FOLLICLE NEOGENESIS, AND PREVENTION/MITIGATION OF UNTOWARD EFFECTS OF RADIATION TREATMENT” (Trustees of Tufts College, priority 2022, published 2025)
